Measurements from the supplement of paper PMC10307832.

Assays:
Experiment in all cases: relative viability (nuclei count vs DMSO), 5 days (fraction); higher = more cells survive
Bexarotene + Lapatinib = compound: C=C(c1ccc(C(=O)O)cc1)c1cc2c(cc1C)C(C)(C)CCC2(C)C [Bexarotene] + CS(=O)(=O)CCNCc1ccc(-c2ccc3ncnc(Nc4ccc(OCc5cccc(F)c5)c(Cl)c4)c3c2)o1 [Lapatinib] (partner 2 µM)
Outline: (§1)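 Values are medians from duplicate plates. Each reflects relative viability, defined as the nuclei count of treated wells over that of vehicle wells. Lung cancer cell lines in 1536-well plates were pin-tool dosed one day after seeding with one drug alone or with a fixed anchor-drug dose plus five library-drug doses (not always all listed) in √10 steps, then fixed, stained and imaged at 4× after 5 days.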

Bexarotene + Crizotinib = compound: C=C(c1ccc(C(=O)O)cc1)c1cc2c(cc1C)C(C)(C)CCC2(C)C [Bexarotene] + C[C@@H](Oc1cc(-c2cnn(C3CCNCC3)c2)cnc1N)c1c(Cl)ccc(F)c1Cl [Crizotinib] (partner 1 µM)
Outline: as §1

Bexarotene + Dasatinib = compound: C=C(c1ccc(C(=O)O)cc1)c1cc2c(cc1C)C(C)(C)CCC2(C)C [Bexarotene] + Cc1nc(Nc2ncc(C(=O)Nc3c(C)cccc3Cl)s2)cc(N2CCN(CCO)CC2)n1 [Dasatinib] (partner 0.075 µM)
Outline: as §1

Bexarotene + Pemetrexed = compound: C=C(c1ccc(C(=O)O)cc1)c1cc2c(cc1C)C(C)(C)CCC2(C)C [Bexarotene] + Nc1nc2[nH]cc(CCc3ccc(C(=O)N[C@@H](CCC(=O)O)C(=O)O)cc3)c2c(=O)[nH]1 [Pemetrexed] (partner 0.2 µM)
Outline: as §1

Row | Cell Line | relative viability (Bexarotene + Lapatinib; first compound 0.08 µM) | relative viability (Bexarotene + Lapatinib; first compound 0.253 µM) | relative viability (Bexarotene + Lapatinib; first compound 0.8 µM) | relative viability (Bexarotene + Lapatinib; first compound 2.53 µM) | relative viability (Bexarotene + Lapatinib; first compound 8 µM) | relative viability (Bexarotene + Crizotinib; first compound 0.08 µM) | relative viability (Bexarotene + Crizotinib; first compound 0.253 µM) | relative viability (Bexarotene + Crizotinib; first compound 0.8 µM) | relative viability (Bexarotene + Crizotinib; first compound 2.53 µM) | relative viability (Bexarotene + Crizotinib; first compound 8 µM) | relative viability (Bexarotene + Dasatinib; first compound 0.08 µM) | relative viability (Bexarotene + Dasatinib; first compound 0.253 µM) | relative viability (Bexarotene + Dasatinib; first compound 0.8 µM) | relative viability (Bexarotene + Dasatinib; first compound 2.53 µM) | relative viability (Bexarotene + Dasatinib; first compound 8 µM) | relative viability (Bexarotene + Pemetrexed; first compound 0.08 µM) | relative viability (Bexarotene + Pemetrexed; first compound 0.253 µM) | relative viability (Bexarotene + Pemetrexed; first compound 0.8 µM) | relative viability (Bexarotene + Pemetrexed; first compound 2.53 µM) | relative viability (Bexarotene + Pemetrexed; first compound 8 µM)
1 | HCC-366 | 0.984 | 1.06 | 1.06 | 1.04 | 1.06 | 0.526 | 0.62 | 0.35 | 0.574 | 0.586 | 0.737 | 0.67 | 0.613 | 0.649 | 0.621 | 0.203 | 0.14 | 0.2 | 0.141 | 0.17
2 | HOP-62 | 1.02 | 1.09 | 0.943 | 1.14 | 1.1 | 1.18 | 0.915 | 0.953 | 1.09 | 0.944 | 0.677 | 0.641 | 0.428 | 0.606 | 0.57 | 0.332 | 0.297 | 0.336 | 0.314 | 0.361
3 | NCI-H1944 | 1.17 | 0.934 | 0.961 | 0.929 | 0.768 | 1.3 | 1.17 | 1.18 | 1.26 | 1.02 | 0.24 | 0.216 | 0.222 | 0.221 | 0.293 | 0.822 | 0.758 | 0.857 | 0.724 | 0.75
4 | SW 1573 | 1.09 | 1 | 1.1 | 0.919 | 0.916 | 0.764 | 0.82 | 0.688 | 0.684 | 0.552 | 0.593 | 0.467 | 0.402 | 0.301 | 0.41 | 0.911 | 0.814 | 0.897 | 0.751 | 0.847
5 | LU99A | 1.12 | 0.917 | 0.929 | 0.99 | 1.03 | 0.495 | 0.634 | 0.573 | 0.524 | 0.542 | 0.748 | 0.703 | 0.711 | 0.613 | 0.699 | 0.19 | 0.194 | 0.206 | 0.189 | 0.171
6 | NCI-H647 | 1.33 | 1.17 | 1.19 | 1.24 | 0.964 | 1.38 | 1.18 | 1.19 | 1.12 | 0.912 | 0.173 | 0.153 | 0.123 | 0.0933 | 0.114 | 0.177 | 0.155 | 0.153 | 0.157 | 0.174
7 | A-427 | 1.03 | 0.997 | 0.929 | 0.997 | 1.04 | 0.855 | 0.86 | 0.761 | 0.798 | 0.848 | 0.726 | 0.614 | 0.611 | 0.627 | 0.684 | 0.938 | 0.872 | 0.794 | 0.773 | 0.904
8 | COR-L 105 | 0.404 | 0.33 | 0.322 | 0.378 | 0.345 | 0.863 | 0.951 | 0.88 | 0.857 | 0.699 | 0.456 | 0.363 | 0.354 | 0.333 | 0.495 | 0.983 | 1.16 | 1.14 | 1.17 | 1.14
9 | NCI-H2126 | 0.768 | 0.741 | 0.73 | 0.81 | 0.757 | 1.08 | 1.05 | 0.989 | 1.08 | 0.977 | 0.573 | 0.588 | 0.586 | 0.584 | 0.602 | 0.822 | 0.679 | 0.621 | 0.742 | 0.636
10 | NCI-H460 | 1.01 | 1.03 | 0.948 | 0.981 | 0.731 | 0.91 | 1.1 | 0.908 | 0.845 | 0.766 | 0.615 | 0.531 | 0.565 | 0.512 | 0.505 | 0.062 | 0.0605 | 0.058 | 0.0661 | 0.0586
11 | SK-LU-1 | 0.938 | 0.955 | – | 1 | 0.692 | 0.926 | 1.06 | – | 0.896 | 0.717 | 0.201 | 0.215 | – | 0.2 | 0.203 | 1.03 | 1.03 | – | 0.944 | 0.923
12 | NCI-H322M | 0.634 | 0.572 | 0.658 | 0.625 | 0.578 | 0.829 | 1.06 | 0.87 | 0.93 | 1.04 | 0.282 | 0.266 | 0.264 | 0.261 | 0.3 | 0.698 | 0.611 | 0.574 | 0.626 | 0.695
13 | EKVX | 0.202 | 0.186 | 0.227 | 0.204 | 0.19 | 0.83 | 1.06 | 0.819 | 1.12 | 0.701 | 0.515 | 0.512 | 0.567 | 0.523 | 0.463 | 0.423 | 0.54 | 0.355 | 0.43 | 0.362
14 | NCI-H1734 | 1.02 | 1.04 | 1.07 | 0.942 | 0.944 | 0.724 | 0.77 | 0.65 | 0.667 | 0.646 | 0.478 | 0.484 | 0.412 | 0.411 | 0.46 | 0.438 | 0.419 | 0.454 | 0.361 | 0.363
15 | NCI-H520 | 1.12 | 0.793 | 0.577 | 0.875 | 0.71 | 0.989 | 0.735 | 0.649 | 0.775 | 0.659 | 0.223 | 0.211 | 0.204 | 0.215 | 0.187 | 0.799 | 0.663 | 0.717 | 0.797 | 0.708
16 | EPLC-272H | 0.982 | 0.825 | 0.898 | 0.746 | 0.865 | 0.877 | 0.971 | 0.854 | 0.853 | 0.772 | 0.388 | 0.312 | 0.369 | 0.352 | 0.383 | 0.27 | 0.346 | 0.218 | 0.395 | 0.325
17 | UMC-11 | 0.943 | 0.907 | 0.894 | 0.803 | 0.916 | 0.546 | 0.684 | 0.537 | 0.572 | 0.587 | 0.485 | 0.516 | 0.516 | 0.514 | 0.493 | 0.77 | 0.764 | 0.786 | 0.77 | 0.803
18 | NCI-H1792 | 0.883 | 0.763 | 0.794 | 0.574 | 0.837 | 0.859 | 0.947 | 0.874 | 0.737 | 0.831 | 0.82 | 0.769 | 0.764 | 0.786 | 0.689 | 1.1 | 0.848 | 0.487 | 0.482 | 0.455
19 | NCI-H1993 | 0.858 | 0.826 | 0.809 | 0.802 | 0.814 | 0.926 | 0.751 | 0.71 | 0.831 | 0.746 | 0.655 | 0.573 | 0.528 | 0.617 | 0.613 | 0.714 | 0.611 | 0.537 | 0.534 | 0.514
20 | NCI-H596 | 1.07 | 1 | 0.783 | 0.916 | 0.928 | 1.05 | 1.01 | 0.871 | 0.973 | 1.05 | 0.671 | 0.654 | 0.773 | 0.907 | 0.704 | 0.47 | 0.482 | 0.451 | 0.456 | 0.736
21 | NCI-H1563 | 1.09 | 0.945 | 0.799 | 0.903 | 0.891 | 0.842 | 0.843 | 0.916 | 0.876 | 0.81 | 0.489 | 0.423 | 0.449 | 0.469 | 0.487 | 0.753 | 0.632 | 0.745 | 0.682 | 0.85
22 | HCC-827 | 0.274 | 0.159 | 0.185 | 0.196 | 0.196 | 0.894 | 0.939 | 0.902 | 0.94 | 0.915 | 0.284 | 0.465 | 0.419 | 0.35 | 0.344 | 0.285 | 0.271 | 0.263 | 0.317 | 0.245
23 | NCI-H2228 | 1.55 | 0.935 | 0.763 | 1.17 | 0.909 | 0.512 | 0.462 | 0.374 | 0.356 | 0.458 | 0.56 | 0.635 | 0.48 | 0.343 | 0.509 | 0.36 | 0.358 | 0.365 | 0.212 | 0.376
24 | NCI-H2170 | 0.264 | 0.245 | 0.275 | 0.305 | 0.273 | 1.1 | 1.11 | 1.15 | 1.02 | 1.05 | 0.615 | 0.466 | 0.522 | 0.476 | 0.584 | 0.265 | 0.272 | 0.254 | 0.258 | 0.27
25 | EMC-BAC-2 | 0.923 | 0.884 | 0.812 | 0.841 | 0.887 | 0.742 | 0.806 | 0.633 | 0.706 | 0.667 | 0.328 | 0.316 | 0.294 | 0.309 | 0.334 | 0.44 | 0.441 | 0.394 | – | 0.419
26 | NCI-H23 | 1.13 | 1.11 | 1.2 | 1.06 | 1.12 | 0.534 | 0.561 | 0.514 | 0.647 | 0.529 | 0.944 | 0.594 | 0.635 | 0.884 | 0.691 | 0.948 | 0.715 | 0.669 | 0.626 | 0.686
27 | RERF-LC-KJ | 0.798 | 0.799 | 0.702 | 0.767 | 0.757 | 0.773 | 0.791 | 0.76 | 0.777 | 0.752 | 0.757 | 0.707 | 0.703 | 0.825 | 0.742 | 0.506 | 0.513 | 0.501 | 0.506 | 0.47
